{"source": "ChEMBL document CHEMBL1121380", "about": "“Perspective on the design and biochemical pharmacology of inhibitors of thymidylate synthetase” (J Med Chem, 1980)", "molecules": {"B1": {"name": "Thymidylate synthase (Lactobacillus casei), P00469 (protein)", "chain": "MLEQPYLDLAKKVLDEGHFKPDRTHTGTYSIFGHQMRFDLSKGFPLLTTKKVPFGLIKSELLWFLHGDTNIRFLLQHRNHIWDEWAFEKWVKSDEYHGPDMTDFGHRSQKDPEFAAVYHEEMAKFDDRVLHDDAFAAKYGDLGLVYGSQWRAWHTSKGDTIDQLGDVIEQIKTHPYSRRLIVSAWNPEDVPTMALPPCHTLYQFYVNDGKLSLQLYQRSADIFLGVPFNIASYALLTHLVAHECGLEVGEFIHTFGDAHLYVNHLDQIKEQLSRTPRPAPTLQLNPDKHDIFDFDMKDIKLLNYDPYPAIKAPVAV"}}, "key": {"[1]": {"test": "Michaelis-Menten constant for Uridine phosphorylase"}, "[2]": {"test": "In vitro inhibition against mammalian Uridine phosphorylase"}, "[3]": {"substrate": "O=c1[nH]c(=S)ccn1[C@H]1C[C@H](O)[C@@H](COP(=O)(O)O)O1", "test": "Michaelis-Menten constant for dTMP synthetase", "details": "Lacticaseibacillus casei"}}, "data": [{"molecule": "C[C@H]1OC(n2ccc(=O)[nH]c2=O)[C@H](O)[C@@H]1O", "note": "(stereo partly drawn)", "values": [{"measurement": "Km", "setting": "[1]", "result": 1000, "unit": "µM"}]}, {"molecule": "Oc1ncc(Cc2ccccc2)c(O)n1", "values": [{"measurement": "Ki", "setting": "[2]", "result": "~1", "unit": "µM"}]}, {"molecule": "B1", "values": [{"measurement": "Km", "setting": "[3]", "result": 70, "unit": "µM"}]}]}
